Laboratory results published in patent publication US20130217579A1, “Pesticide Preparations Containing N-Substituted 2-Pyrrolidone-4-Carboxylic Acid Esters” (CLARIANT FINANCE (BVI) LIMITED, priority 2010, published 2013).

Assay: Solubilities of pesticides in compounds of formula (1)
Type: physicochemical
Description: The solubilities of various pesticides were determined in various compounds of formula (1) at 25° C. All data are in % by weight (Table 1).

For `CCCCOC(=O)C1CC(=O)N(C)C1` (centres unmarked) [Example 3, N-butyl N-methyl-2-pyrrolidone-4-carboxylate], the “Solubility of Pendimethalin in compound of formula (1)” value was 38.9 % by weight, the “Solubility of Tebuconazole in compound of formula (1)” value was 37.0 % by weight and the “Solubility of Triadimefon in compound of formula (1)” value was 43.0 % by weight. For the same compound, the “Solubility of Trifloxystrobin in compound of formula (1)” value was 30.1 % by weight and the “Solubility of Trifluralin in compound of formula (1)” value was 57.4 % by weight.
